Results from US6365359B1 (The Regents of the University of California, priority 1997, dated 2002).
Where a SMILES comes first, the peptide text is derived from it. [ ]: non-standard residue; d: D form. The star is where a group is joined. AMC = Cc1cc(=O)oc2cc(N*)ccc12; pGlu = O=C1CC[C@@H](C(=O)O)N1; Cbz = O=C(OCc1ccccc1)*

Tested on: PrP^Sc formation in transiently transfected ScN2a cells
Type: cell-based, mouse

Compound	Results (effect on transiently transfected ScN2a cells; inhibitory effect on PrP^Sc formation)
CC(=O)O[C@@H]1[C@H](OC(C)=O)[C@@H](CO)O[C@H]1n1cnc2c(N)ncnc21 [Compound 32, 2′3′-Di-O-Acetyladenosine]	Positive
Cc1cc(=O)oc2cc(NC(=O)[C@H](CCCNC(=N)N)NC(=O)[C@H](Cc3ccccc3)NC(=O)OCc3ccccc3)ccc12.Cl [Compound 53, Z-Phenyl-Arginyl-7-Amido-4-Methylcoumarin Hcl] (Cbz-Phe-Arg-{AMC})	Negative
N=C(N)c1ccc(-c2cc3ccc(C(=N)N)cc3[nH]2)cc1 [Compound 14, 4′,6-Diamidino-2 Phenylindole]	Negative
NCCC(O)C(=O)NC1CC(N)C(OC2OC(CN)C(O)[C@H](O)[C@@H]2N)[C@H](OC2O[C@H](CO)[C@@H](O)[C@@H]2O)[C@@H]1O.O=S(=O)(O)O.O=S(=O)(O)O (stereo partly drawn) [Compound 15, Butirosin Disulfate Salt, reference compound]	Negative
[Mei(O)4, D-Lyss, Pho9]-Fragment 4-9 [Compound 30]	Negative
Leu-Asp-Val-Pro-Ser (LDVPS; printed: Leu-Asp-Val-Pro-Ser) [Compound 57]	Negative
NC(=O)c1ccc(C(=O)O)cc1C(=O)O [Compound 41, Trimellitic Acid Amide]	Negative
NC[C@@H]1CC[C@@H](N)[C@@H](O[C@H]2[C@H](O)[C@@H](O[C@H]3O[C@H](CO)[C@@H](O)[C@H](N)[C@H]3O)[C@H](N)C[C@@H]2N)O1 [Compound 22, Dibekacin, reference compound]	Negative
COc1ccc(OC)c(NC(=N)N)c1.O=C(O)O [Compound 51, 2,5 Dimethoxy-phenylguanidine Carbonate]	Negative
[Glu]-TRH [Compound 55]	negative
Nc1ccn([C@@H]2O[C@H](COP(=O)(O)O[C@H]3[C@@H](O)[C@H](n4cnc5c(N)ncnc54)O[C@@H]3CO)[C@@H](O)[C@H]2O)c(=O)n1 [Compound 27, Adenylyl (3′5′)Cytidine]	Negative
O=C(NC(CO)Cc1c[nH]cn1)c1ccccc1 [Compound 48, n-alphabenzoyl-L-Histidinol]	Negative
6-Morpholino-5-Nitroimidazol [Compound 66]	Negative
O=P(O)(O)O[C@H]1[C@@H](O)[C@H](n2cnc3c(O)ncnc32)O[C@@H]1CO [Compound 36, Inosine 3′-Monophosphate]	Negative
BOC-Val-Gly-Arg-βNa-AcOH [Compound 49]	Negative
CN[C@@H]1[C@@H](O)[C@@H](O[C@@H]2[C@@H](O)[C@H](O[C@H]3OC(CN)=CC[C@H]3N)[C@@H](N)C[C@H]2N)OC[C@]1(C)O [Compound 23, Sisomycin, reference compound]	Negative
Nc1ccc(Cc2ccc(N)cc2[N+](=O)[O-])cc1 [Compound 47, 3 mitro 4,4′ methylamediamiline]	Negative
Nc1ccn([C@@H]2O[C@H](CO)[C@@H](OP(=O)(O)OC[C@H]3O[C@@H](n4cnc5c(=O)[nH]c(N)nc54)[C@H](O)[C@@H]3O)[C@H]2O)c(=O)n1 [Compound 10, Cytidylyl (3′5′) Guanosine]	Negative
H-Ala-Arg-Oh Acetate [Compound 5]	Negative
NC(=O)NC(NC(N)=O)C(=O)O [Compound 38, Allentoic Acid]	Negative
NCC[C@H](O)C(=O)N[C@@H]1C[C@H](N)[C@@H](O[C@H]2O[C@H](CN)[C@@H](O)[C@H](O)[C@H]2O)[C@H](O)[C@H]1O[C@H]1O[C@H](CO)[C@@H](O)[C@H](N)[C@H]1O [Compound 39, Amikacin, reference compound]	Negative
Nc1ncnc2c1ncn2[C@@H]1O[C@H](CO)[C@H]2OP(=O)([O-])O[C@H]21.[Na+] [Compound 29, Adenosine 2′3′cyclic monophosphase sodium salt]	Negative
2′-O-Anthramiloy Indenosine 3′5′-Cyclic Monophosphate [Compound 40]	Negative

Compound	Results (effect on transiently transfected ScN2a cells; inhibitory effect on PrP^Sc formation)
PGlu-Gly-Arg-Phe Amide ([pGlu]GRF-NH2; SMILES N=C(N)NCCC[C@H](NC(=O)CNC(=O)[C@@H]1CCC(=O)N1)C(=O)N[C@@H](Cc1ccccc1)C(N)=O) [Compound 20]	Negative
O=P(O)(O)OC[C@H]1O[C@@H](n2cnc3c2ncn2ccnc32)[C@H](O)[C@@H]1O [Compound 7, 1, N6-Ethenoadenosine-5′-Monophosphate]	Positive
NC[C@H]1O[C@H](O[C@H]2[C@H](O[C@@H]3O[C@H](CO)[C@@H](O)[C@H]3O)[C@@H](O)[C@H](N)C[C@@H]2N)[C@H](N)[C@@H](O)[C@@H]1O [Compound 21, Ribostamycin, reference compound]	Negative
O=C(O)/C=C/c1c[nH]cn1 [Compound 1, Urocanic Acid]	Negative
[H]/N=C(/N)N[C@H]1[C@H](O)[C@@H](O)[C@H](O[C@@H]2O[C@@H](C)[C@](O)(C=O)[C@H]2O[C@@H]2O[C@@H](CO)[C@H](O)[C@@H](O)[C@@H]2NC)[C@@H](N/C(N)=N\[H])[C@@H]1O [Compound 42, Streptomycin, reference compound]	Negative
Br.N=C(N)NCCC[C@H](NC(=O)OCc1ccccc1)C(=O)OCc1ccc([N+](=O)[O-])cc1 [Compound 54, Z-ARG-OBZL (P-NO2)HBR]	Negative
Nc1nc2c(ncn2[C@@H]2O[C@H](COP(=O)(O)O[C@@H]3[C@H](O)[C@@H](CO)O[C@H]3n3cnc4c(=O)[nH]c(N)nc43)[C@@H](O)[C@H]2O)c(=O)[nH]1 [Compound 28, Guanylyl (2′5′)Guanosine]	Negative
Hydroxyguanidino-purine Riboside [Compound 26]	Negative
CC(=O)O[C@@H]1[C@H](OC(C)=O)[C@@H](CO)O[C@H]1n1cnc2c(=O)[nH]c(N)nc21 [Compound 17, 2′3′-Di-O-Acetylguanoside]	Negative
OC[C@H]1O[C@@H](n2cnc3cncnc32)[C@H](O)[C@@H]1O [Compound 18, Purine Riboside]	Positive
CN(C)c1ncnc2c1ncn2[C@@H]1O[C@H](CO)[C@@H](N)[C@H]1O [Compound 16, Puromycin Aminonucleoside]	Negative
Naphtha (Terbutoxycarbonyl)-L-Arginine [Compound 2]	Negative
CCCCC(NC(=O)CCl)C(=O)O (racemic) [Compound 6, Chloroacetyl-DL-Nortencine]	Negative
Cn1c(=O)c2c(ncn2C)n(C)c1=O [Compound 13, Caffeine, reference compound]	Negative
NC[C@H]1O[C@H](O[C@H]2[C@H](O)[C@@H](O)[C@H](N)C[C@@H]2N)[C@H](N)[C@@H](O)[C@@H]1O [Compound 9, Neamine]	Negative
Nc1ncnc2c1ncn2[C@H]1O[C@H](CO)[C@@H](O)[C@H]1O [Compound 3, α-Adenosine]	Negative
Cl.NC(N)=NC(=O)c1nc(Cl)c(N)nc1N [Compound 69, Amiloride-HCI, reference compound]	Negative
CN1C(=O)C(CCCNC(=N)N)NC1=S.Cl (racemic) [Compound 34, MTH-DL-Arginine HCI]	Negative
N=C(N)c1ccc(Oc2ccc(-c3cc4ccc(C(=N)N)cc4[nH]3)cc2)cc1 [Compound 25, Amidinophenyl (6 Amidino-2-indolyl)Phenyl Ether]	Negative
NC(=NO)c1nc[nH]c1N [Compound 37, Amino Imidazole Carobxamidoxime]	Negative
O=C(O)C(Cc1cnc[nH]1)N1C(=O)c2ccccc2C1=O (racemic) [Compound 45, N Phrhaloyl-DL-Histidine]	Negative
CC1(C)C(=O)NC(=O)N1SN1C(=O)NC(=O)C1(C)C [Compound 44, 1,1, Thhiobis 5,5′ Dimethyl hydratoin]	Negative
